Reference: ChEMBL document CHEMBL1800011, “Anti-leishmanial activity of disubstituted purines and related pyrazolo[4,3-d]pyrimidines” (Bioorg Med Chem Lett, 2011)

Experiments:
[1] = Inhibition of Leishmania donovani CRK3/CYC6 activity expressed in Escherichia coli using 15 uM ATP
Leishmania donovani [2] = assay: Antileishmanial activity against axenic amastigotes of Leishmania donovani MHOM/SD/1962/1S-Cl2d at 30 uM after 24 hrs by alamar Blue viability assay; format: functional
Leishmania donovani [3] = assay: Inhibition of Leishmania donovani CRK3/CYC6 activity expressed in Escherichia coli using 15 uM ATP at 30 uM
Leishmania donovani [4] = assay: Antileishmanial activity against axenic amastigotes of Leishmania donovani MHOM/SD/1962/1S-Cl2d after 24 hrs by alamar Blue viability assay; format: functional, organism-based

Compound | IC50 [1] [µM] | inhibition (Leishmania donovani [3]) [%] | inhibition at 30 µM (Leishmania donovani [2]) [%] | EC50 (Leishmania donovani [4]) [µM]
CC(C)n1cnc2c(NCc3ccccc3)ncnc21 | > 100 | 18.5 | 19.9 | –
CC(C)n1cnc2c(NC3CCC(N)CC3)ncnc21 (stereo unspecified) | > 100 | 26.4 | 1 | –
COc1ccc(CNc2ncnc3c(C(C)C)n[nH]c23)cc1OC | > 100 | 19.9 | 8.4 | > 100
CC(C)c1n[nH]c2c(NC3CCC(N)CC3)ncnc12 (stereo unspecified) | > 100 | 35 | 3.3 | > 100
CC(C)n1cnc2c(NCc3ccccc3N)ncnc21 | > 100 | 11 | 6.6 | –
CC(C)c1n[nH]c2c(NC3CCCCC3N)ncnc12 (stereo unspecified) | > 100 | 2.4 | 15.8 | > 100
COc1cc(CNc2ncnc3c2ncn3C(C)C)ccc1O | > 100 | 11.9 | 9.5 | –
CCCCCNc1ncnc2c1ncn2C(C)C | > 100 | 14.8 | 22.6 | –
CC(C)n1cnc2c(NCc3cccc(O)c3)ncnc21 | > 100 | 8.8 | 6.5 | –
CC(C)n1cnc2c(Nc3cccc(Cl)c3)ncnc21 | > 100 | 22.3 | 35.1 | –
CCCCCNc1ncnc2c(C(C)C)n[nH]c12 | > 100 | 46.5 | 27.3 | 54.7
COc1ccc(CNc2ncnc3c2ncn3C(C)C)cc1 | > 100 | -6.9 | 15.1 | –
COc1ccc(CNc2ncnc3c2ncn3C(C)C)cc1O | > 100 | 11.2 | 8.8 | –
COc1ccc(CNc2ncnc3c2ncn3C(C)C)cc1OC | > 100 | -2.3 | 1.9 | –
CC(C)c1n[nH]c2c(NCc3ccco3)ncnc12 | > 100 | 28.5 | 16.6 | > 100
CC(C)n1cnc2c(Nc3ccccc3Br)ncnc21 | > 100 | 1.8 | 26.2 | –
CC(C)=CCNc1ncnc2c1ncn2C(C)C | > 100 | 3.2 | 0.04 | –
CC(C)n1cnc2c(NC3CCCCC3N)ncnc21 (stereo unspecified) | > 100 | -5.4 | 4.5 | –
CC(C)n1cnc2c(NCc3ccccc3O)ncnc21 | > 100 | -2.8 | 11.7 | –
CC(C)n1cnc2c(NCc3ccco3)ncnc21 | > 100 | 3.5 | 14.5 | –

The next lines start with results.

IC50 [1] [µM] | inhibition (Leishmania donovani [3]) [%] | Compound | inhibition at 30 µM (Leishmania donovani [2]) [%] | EC50 (Leishmania donovani [4]) [µM]
12.2 | 66.1 | CC(C)n1cnc2c(NC34CC5CC(CC(C5)C3)C4)ncnc21 | 72 | –
83.2 | 35.8 | CC(C)c1n[nH]c2c(NCc3cccc(O)c3)ncnc12 | 25.4 | > 100
100 | 41 | COc1cc(CNc2ncnc3c(C(C)C)n[nH]c23)ccc1O | 10.4 | > 100
57.2 | 32.5 | CC(C)=CCNc1ncnc2c(C(C)C)n[nH]c12 | 45.5 | 85
22.8 | 53.3 | CC(C)n1cnc2c(Nc3ccc(F)cc3)ncnc21 | 21.5 | –
54.2 | 24.5 | CC(C)c1n[nH]c2c(NCc3ccccc3)ncnc12 | 29.6 | 68.6
14.6 | 70.4 | CC(C)c1n[nH]c2c(Nc3cccc(F)c3)ncnc12 | 66.6 | 23.2
6.8 | 78.8 | CC(C)c1n[nH]c2c(Nc3ccc(F)cc3)ncnc12 | 75.8 | 11.6
75.5 | 36 | COc1ccc(CNc2ncnc3c(C(C)C)n[nH]c23)cc1 | 31.5 | 83
9.86 | 81.3 | CC(C)c1n[nH]c2c(Nc3cccc(Cl)c3)ncnc12 | 73.3 | 12.4
1.82 | 93.8 | CC(C)c1n[nH]c2c(NC34CC5CC(CC(C5)C3)C4)ncnc12 | 73.2 | 1.22
58.6 | 42.3 | CC(C)c1n[nH]c2c(NCc3ccccc3N)ncnc12 | 41.3 | > 100
28.2 | 46.8 | COc1ccc(CNc2ncnc3c(C(C)C)n[nH]c23)cc1O | 34.3 | 94
49.9 | 30.4 | CC(C)n1cnc2c(Nc3cccc(F)c3)ncnc21 | 16.5 | –
16.1 | 35.6 | CC(C)c1n[nH]c2c(Nc3ccccc3Br)ncnc12 | 40.7 | 18.7
11.9 | 68 | CC(C)c1n[nH]c2c(NCc3ccccc3O)ncnc12 | 87.4 | 35.7
